Source: patent publication US10294202B2, “Pyrrolidinones as herbicides” (FMC Corporation, priority 2013, dated 2019)

Tests used:
barnyardgrass [1] = test: Test A pre-/postemergence herbicide test; type: in vivo, Echinochloa crus-galli
Method in brief: (§1)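 Planted in loam–sand blend; treated the same day preemergence by directed soil spray, while separately grown plants at one- to two-leaf stage got postemergence spray. Compared visually with untreated controls after approximately 10 days; 100 means complete control.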

kochia = test: Test A pre-/postemergence herbicide test; type: in vivo, Kochia scoparia; settings: for Plant response rating, Kochia: 0 to 100 scale
Method in brief: as §1

ragweed = test: Test A pre-/postemergence herbicide test; type: in vivo, Ambrosia elatior; settings: for Plant response rating, Ragweed: 0 to 100 scale
Method in brief: as §1

ryegrass, Italian = test: Test A pre-/postemergence herbicide test; type: in vivo, Lolium multiflorum; settings: for Plant response rating, Ryegrass, Italian: 0 to 100 scale
Method in brief: as §1

giant foxtail = test: Test A pre-/postemergence herbicide test; type: in vivo, Setaria faberii; settings: for Plant response rating, Foxtail, Giant: 0 to 100 scale
Method in brief: as §1

pigweed = test: Test A pre-/postemergence herbicide test; type: in vivo, Amaranthus retroflexus; settings: for Plant response rating, Pigweed: 0 to 100 scale
Method in brief: as §1

wheat = test: Test A pre-/postemergence herbicide test; type: in vivo, Triticum aestivum; settings: Postemergence; for Plant response rating, Wheat: 125 g ai/ha, 0 to 100 scale; for Wheat plant response rating (0 to 100 scale, 0 is no effect, 100 is complete control): 500 g ai/ha
Method in brief: as §1

corn = test: Test A pre-/postemergence herbicide test; type: in vivo, Zea mays; settings: Postemergence
Method in brief: as §1

blackgrass = test: Test A postemergence herbicide test; type: in vivo, Alopecurus myosuroides
Method in brief: (§2)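 Injury was rated visually about 10 days after treatment on a 0 (no effect) to 100 (complete control) scale, compared with untreated plants. Test chemicals were sprayed postemergence onto greenhouse plants 2–10 cm high at one to two leaves, grown in a loam–sand blend.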

galium = test: Test A postemergence herbicide test; type: in vivo, Galium aparine; settings: for Plant response rating, Galium: 125 g ai/ha, 0 to 100 scale; for Galium plant response rating (0 to 100 scale, 0 is no effect, 100 is complete control): 500 g ai/ha
Method in brief: as §2

rice = test: Test B flooded paddy test; type: in vivo, Oryza sativa; settings: 500 g ai/ha, Flood; scale of 0 to 100 where 0 is no effect and 100 is complete control
Method in brief: (§3)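 Visual ratings from 0, meaning no effect, up to 100, meaning complete control, were made by comparison with untreated controls 13 to 15 days after treatment. Test compounds went straight into floodwater standing 3 cm over the soil of pots holding 2-leaf seedlings.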

sedge, umbrella = test: Test B flooded paddy test; type: in vivo, Cyperus difformis; settings: 500 g ai/ha, Flood; scale of 0 to 100 where 0 is no effect and 100 is complete control
Method in brief: as §3

ducksalad = test: Test B flooded paddy test; type: in vivo, Heteranthera limosa; settings: 500 g ai/ha, Flood; scale of 0 to 100 where 0 is no effect and 100 is complete control
Method in brief: as §3

barnyardgrass [2] = test: Test B flooded paddy test; type: in vivo, Echinochloa crus-galli; settings: 500 g ai/ha, Flood; scale of 0 to 100 where 0 is no effect and 100 is complete control
Method in brief: as §3

[3] = 125 g ai/ha, visual rating, 0 to 100 scale, 0 no effect, 100 complete control, approximately 10 days, preemergence
[4] = preemergence, 500 g ai/ha, 0 to 100 scale (0 no effect, 100 complete control)
[5] = 125 g ai/ha, visual rating, 0 no effect, 100 complete control, approximately 10 days, preemergence
[6] = Postemergence, 125 g ai/ha, 0 is no effect, 100 is complete control
[7] = preemergence, 500 g ai/ha, 0 is no effect and 100 is complete control
[8] = 0 is no effect, 100 is complete control
[9] = 125 g ai/ha, 0 to 100 scale, 0 is no effect, 100 is complete control
[10] = Postemergence, 125 g ai/ha, 0 no effect, 100 complete control
[11] = 0 no effect, 100 complete control
[12] = 125 g ai/ha, 0 to 100 scale, 0 no effect, 100 complete control
[13] = 500 g ai/ha, 0 to 100 scale (0 no effect, 100 complete control)

Row | SMILES | Plant response rating, Barnyardgrass (barnyardgrass [1]; [3]) | Plant response rating, Barnyardgrass (barnyardgrass [1]; [4]) | Plant response rating, Kochia (kochia; [5]) | Kochia plant response rating (0 to 100 scale, 0 is no effect, 100 is complete control) (kochia; Postemergence, 500 g ai/ha) | Plant response rating, Ragweed (ragweed; [5]) | Ragweed plant response rating (0 to 100 scale, 0 is no effect, 100 is complete control) (ragweed; Postemergence, 500 g ai/ha) | Plant response rating, Ryegrass, Italian (ryegrass, Italian; [5]) | Ryegrass, Italian plant response rating (0 to 100 scale, 0 is no effect, 100 is complete control) (ryegrass, Italian; Postemergence, 500 g ai/ha) | Plant response rating, Foxtail, Giant (giant foxtail; [5]) | Foxtail, Giant plant response rating (0 to 100 scale, 0 is no effect, 100 is complete control) (giant foxtail; Postemergence, 500 g ai/ha) | Plant response rating, Foxtail, Giant (giant foxtail; preemergence, 500 g ai/ha) | Plant response rating, Pigweed (pigweed; [5]) | Pigweed plant response rating (0 to 100 scale, 0 is no effect, 100 is complete control) (pigweed; Postemergence, 500 g ai/ha) | Wheat plant response rating (0 to 100 scale, 0 is no effect, 100 is complete control) (wheat) | Galium plant response rating (0 to 100 scale, 0 is no effect, 100 is complete control) (galium) | Plant response rating, Rice (rice) | Plant response rating, Sedge, Umbrella (sedge, umbrella) | Plant response rating, Ducksalad (ducksalad) | Plant response rating, Barnyardgrass (barnyardgrass [2]) | further results
1 | Cc1ccc(C2CNC(=O)C2C(=O)Nc2cccc(F)c2)cc1 (racemic) [Compound 153] | 80 | 90 | 60 | 60 | 0 | 10 | 0 | 0 | 60 | 60 | 80 | 0 | 50 | 0 | 60 | 10 | 0 | 100 | 60 | Plant response rating, Barnyardgrass (barnyardgrass [1]; Postemergence, 125 g ai/ha, 0 to 100 scale, 0 is no effect, 100 is complete control): 60; Barnyardgrass plant response rating (0 to 100 scale, 0 is no effect, 100 is complete control) (barnyardgrass [1]; Postemergence, 500 g ai/ha): 80; Plant response rating, Kochia (kochia; [6]): 60; Plant response rating, Kochia (kochia; [7]): 80; Plant response rating, Ragweed (ragweed; [6]): 0; Plant response rating, Ragweed (ragweed; [7]): 80; Plant response rating, Ryegrass, Italian (ryegrass, Italian; [6]): 0; Plant response rating, Ryegrass, Italian (ryegrass, Italian; [7]): 0; Plant response rating, Foxtail, Giant (giant foxtail; [6]): 50; Plant response rating, Pigweed (pigweed; [6]): 40; Plant response rating, Pigweed (pigweed; [7]): 0; Plant response rating, Wheat (wheat; [8]): 0; Plant response rating, Corn (corn; [9]): 0; Corn plant response rating (0 to 100 scale, 0 is no effect, 100 is complete control) (corn; 500 g ai/ha): 0; Plant response rating, Blackgrass (blackgrass; [9]): 40; Blackgrass plant response rating (0 to 100 scale, 0 is no effect, 100 is complete control) (blackgrass; 500 g ai/ha): 30; Plant response rating, Galium (galium; [8]): 0
2 | O=C1NCC(c2cccc(OC(F)(F)C(F)F)c2)C1C(=O)Nc1ccc(F)c(F)c1F (racemic) [Compound 124] | 70 | 80 | 60 | 80 | 40 | 70 | 0 | 50 | 80 | 90 | 90 | 70 | 70 | 50 | 80 | 0 | 0 | 100 | 40 | Plant response rating, Barnyardgrass (barnyardgrass [1]; Postemergence, 125 g ai/ha, 0 to 100 scale, 0 no effect, 100 complete control): 60; Plant response rating, Barnyardgrass (barnyardgrass [1]; Postemergence, 500 g ai/ha, 0 to 100 scale (0 no effect, 100 complete control)): 70; Plant response rating, Kochia (kochia; [10]): 70; Plant response rating, Kochia (kochia; preemergence, 500 g ai/ha): 70; Plant response rating, Ragweed (ragweed; [10]): 40; Plant response rating, Ragweed (ragweed; preemergence, 500 g ai/ha): 50; Plant response rating, Ryegrass, Italian (ryegrass, Italian; [10]): 30; Plant response rating, Ryegrass, Italian (ryegrass, Italian; preemergence, 500 g ai/ha): 40; Plant response rating, Foxtail, Giant (giant foxtail; [10]): 80; Plant response rating, Pigweed (pigweed; [10]): 60; Plant response rating, Pigweed (pigweed; preemergence, 500 g ai/ha): 80; Plant response rating, Wheat (wheat; [11]): 30; Plant response rating, Corn (corn; [12]): 0; Plant response rating, Corn (corn; [13]): 50; Plant response rating, Blackgrass (blackgrass; [12]): 40; Plant response rating, Blackgrass (blackgrass; [13]): 70; Plant response rating, Galium (galium; [11]): 70
